Legend:
Assay type in all cases: in vivo
[1] = tested on: southern root-knot nematode (Meloidogyne incognita); test: Test on effects against southern root-knot nematode: treated contaminated soil, cucumber pot test (Test Example 1 and Comparative Test); design: key: 0: No knot formed on the root at all; 1: Knots formed to a slight degree; 2: Knots formed to a moderate degree; 3: Knots formed to a heavy degree; 4: Knots formed to the heaviest degree
Experimental: The treated soil was put into a pot, three cucumber seeds were sown, and the pot was placed in a greenhouse. Two to three weeks after the sowing of the cucumber seeds, the root knot index was determined based on the degree of formation of root knots shown in Table 5. Each composition containing Compound No. […]-192 or B-196 at a concentration of 400 ppm and the composition containing Compound No. […] [table] […] Root knot index of 2 corresponds to a state where the proportion of healthy roots is 50% or less to the entire roots, and indicates control effects to such an extent that cucumber as a crop plant to be tested cannot healthily grow.

[2] = tested on: soybean cyst nematode (Heterodera glycines); test: Test on effects against soybean cyst nematode: treated contaminated soil, soybean pot test (Test Example 3); design: key: 0: No parasitic cyst observed on the roots at all; 1: Parasitic cyst observed to a slight degree; 2: Parasitic cyst observed to a moderate degree; 3: Parasitic cyst observed to a heavy degree; 4: Parasitic cyst observed densely on the entire roots; settings: 10 ml poured to 200 ml contaminated soil, about one month after sowing
Experimental: . The treated soil was put into a pot, three soybean seeds were sown, and the pot was placed in a greenhouse. About one month after the sowing of the soybean seeds, the parasite index was determined based on the cyst parasite level on the roots shown in Table 7.

[3] = tested on: Cobb root-lesion nematode (Pratylenchus penetrans); test: Test on effects against Cobb root-lesion nematode: treated contaminated soil, burdock pot test (Test Example 2); design: key: 0: No injury; 1: Slight injury; 2: Moderate injury; 3: Heavy injury; 4: Heaviest injury; settings: 800 ppm, 10 ml poured to 200 ml contaminated soil, about one month after sowing
Experimental: . The treated soil was put into a pot, three burdock seeds were sown, and the pot was placed in a greenhouse. About one month after the sowing of the burdock seeds, the injury index was determined based on the root injury level shown in Table 6.

[4] = 400 ppm, 10 ml poured to 200 ml contaminated soil, cucumber, two to three weeks after sowing
[5] = Comparative Test, active ingredient concentration 50 ppm, otherwise as Test Example 1 (cucumber)

Row | Structure (SMILES) | root knot index [1, 4] | parasite index ([2]; 400 ppm) | root knot index [1, 5] | injury index [3] | parasite index ([2]; 800 ppm) | root knot index ([1]; […], cucumber, two to three weeks after sowing)
1 | O=CNN=C(c1ccc(F)cc1)C1(n2cnc(C(F)(F)F)n2)CC1 (single isomer, unassigned) [B-106] | 1 | 1 | – | – | – | –
2 | CC(C)(C(=NNC=O)c1ccccc1)n1ccc(C(F)(F)F)n1 [A-1, N′-(2-methyl-1-phenyl-2-(3-trifluoromethyl-1H-pyrazol-1-yl)propylidene) formhydrazide] | 1 | – | 1 | 1 | 1 | –
3 | CC(C)(C(=NNC=O)c1ccccc1)n1cnc(C(F)(F)F)n1 [A-2] | 1 | – | 0 | – | 1 | –
4 | CC(C)(C(=NNC=O)c1ccc(Cl)cc1)n1ccc(C(F)(F)F)n1 [A-89] | 1 | – | – | – | 1 | –
5 | CC(C)(C(=NNC=O)c1ccc(F)cc1)n1ccc(C(F)(F)F)n1 [A-107] | 1 | – | – | – | 1 | –
6 | CC(C)(C(=NNC=O)c1ccccc1C(F)(F)F)n1ccc(C(F)(F)F)n1 [A-260] | 1 | 1 | – | – | – | –
7 | CC(C)(C(=NNC=O)c1ccccc1OC(F)(F)F)n1cnc(C(F)(F)F)n1 [A-271] | 1 | – | – | – | 1 | –
8 | CC(C)(C(=NNC=O)c1cccc(F)c1)n1ccc(C(F)(F)F)n1 [A-274] | 1 | – | – | – | 1 | –
9 | CC(C)(C(=NNC=O)c1cccc(F)c1)n1ccc(Br)n1 [A-279] | 1 | – | – | – | 1 | –
10 | CC(C)(C(=NNC=O)c1cccc(Cl)c1)n1ccc(C(F)(F)F)n1 [A-318] | 1 | – | 1 | 1 | 1 | –
11 | CC(C)(C(=NNC=O)c1cccc(Cl)c1)n1cnc(C(F)(F)F)n1 [A-319] | 1 | – | – | – | 1 | –
12 | Cc1cccc(C(=NNC=O)C(C)(C)n2ccc(C(F)(F)F)n2)c1 [A-322] | 1 | – | – | – | 1 | –
13 | Cc1cccc(C(=NNC=O)C(C)(C)n2cnc(C(F)(F)F)n2)c1 [A-323, N′-(2-methyl-1-(3-methylphenyl)-2-(3-trifluoromethyl-1H-triazol-1-yl)propylidene) formhydrazide] | – | – | – | – | 1 | 1
14 | COc1cccc(C(=NNC=O)C(C)(C)n2ccc(C(F)(F)F)n2)c1 [A-328] | 1 | – | – | – | 1 | –
15 | CC(C)(C(=NNC=O)c1cccc(Cl)c1Cl)n1cnc(C(F)(F)F)n1 [A-333] | 1 | – | – | – | 1 | –
16 | CC(C)(C(=NNC=O)c1cc(F)ccc1Cl)n1cnc(C(F)(F)F)n1 [A-352] | 1 | – | – | – | 1 | –
17 | CC(C)(C(=NNC=O)c1cccc2c1OC(F)(F)O2)n1cnc(C(F)(F)F)n1 [A-411] | 1 | – | – | – | 1 | –
18 | CC(C)(C(=NNC=O)c1cccc2c1OC(F)(F)O2)n1ccc(C#N)n1 [A-416] | 1 | – | – | – | 1 | –
19 | O=CNN=C(c1ccccc1)C1(n2ccc(C(F)(F)F)n2)CC1 [B-1, N′-(phenyl(1-(3-trifluoromethyl-1H-pyrazol-1-yl)cyclopropyl)methylene) formhydrazide] | 1 | – | – | 1 | 1 | –
20 | Cc1ccccc1C(=NNC=O)C1(n2ccc(C(F)(F)F)n2)CC1 [B-196] | 1 | – | – | – | 1 | –

Reference: patent US20240334931A1, “NEMATICIDAL COMPOSITION” (ISHIHARA SANGYO KAISHA, LTD., priority 2021, published 2024)
